Measurements from patent US20060166933A1, “Novel 2H-chromene derivatives as selective estrogen receptor modulators” (priority 2004, published 2006).

Experiments:
hER-β = target: T1, hER-β (Homo sapiens, UniProt Q92731); experiment: Estrogen Receptor β Fluorescence Polarization Assay (Fluormone ES2 displacement); details: Fluormone ES2, 1 h room temperature, read-out: ER β-Binding
T1 construct: purchased Panvera
Description: Estrogen Receptor β Fluorescence Polarization Assay
This assay monitors binding of a fluorescent analog of estrogen (Fluormone ES2, Panvera) to the estrogen receptor. Plates are read in a fluorometer that can be set to polarization mode. A decrease in […] relative to vehicle control is an indication of binding of a compound to the receptor.
It is crucial to avoid introduction of air bubbles into the reaction in each well of the 96 well plate throughout this procedure. (Bubbles on the surface of the reaction disrupt light flow, affecting the polarization reading.) However, it is also crucial to effectively mix the reaction components upon addition to the well.
On ice, a 2× standard mixture of Assay Buffer (Panvera), 10 nM DTT and 40 nM ES2 was prepared. On ice, a 2× reaction mixture of Assay Buffer (Panvera), and 20 nM hER-β (Panvera) and 40 nM ES2 was also prepared.
Dilutions of test compound were prepared in 30% (v/v) dimethyl sulfoxide/50 mM HEPES, pH 7.5. At this point, the dilutions were 40× the final required concentration.
The standard mixture at 50 μL was then added to each well. The reaction mixture at 48 μL was added to all wells. The compound dilution at 2.5 μL was added to the appropriate wells. The reaction mixtures were mixed using a manual pipette, a roll of aluminum foil adhesive cover was placed on the plate and the plate incubated at room temperature for 1 hour.
Each well on the plate was then read in an LjL Analyst with an excitation wavelength of […] and an emission wavelength of 538.
(§1) Representative compounds of the present invention were tested according to the procedures described in Examples 23-24, above for binding to the estrogen-α and estrogen-β receptors, with results as listed in Table 2, below.

[1] = target: T2, human estrogen receptor α (Homo sapiens, UniProt P03372); experiment: Estrogen Receptor α Flash Plate Assay (binding of radiolabeled estrogen); details: radiolabeled estrogen 0.5 nM, FlashPlate, 1 h room temperature; read-out: ER-α Binding
T2 construct: purchased Panvera
T2 sequence (P03372 1-595): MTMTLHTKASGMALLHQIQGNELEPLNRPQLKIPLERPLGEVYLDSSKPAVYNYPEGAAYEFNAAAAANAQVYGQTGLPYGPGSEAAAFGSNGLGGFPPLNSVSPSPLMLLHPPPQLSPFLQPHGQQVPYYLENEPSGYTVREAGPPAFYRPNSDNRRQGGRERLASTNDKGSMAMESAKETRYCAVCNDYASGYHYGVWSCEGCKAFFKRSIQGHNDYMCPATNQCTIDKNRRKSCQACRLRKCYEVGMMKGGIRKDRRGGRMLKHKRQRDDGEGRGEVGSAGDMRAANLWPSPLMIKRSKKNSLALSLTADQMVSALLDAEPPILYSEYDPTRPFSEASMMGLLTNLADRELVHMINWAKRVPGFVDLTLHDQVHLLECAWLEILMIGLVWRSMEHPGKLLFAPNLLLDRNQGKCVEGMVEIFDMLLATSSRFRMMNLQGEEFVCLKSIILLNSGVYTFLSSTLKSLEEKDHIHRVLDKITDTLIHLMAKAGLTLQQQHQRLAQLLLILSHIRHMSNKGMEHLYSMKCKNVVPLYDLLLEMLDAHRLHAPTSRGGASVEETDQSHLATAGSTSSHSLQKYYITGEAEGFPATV
Description: Estrogen Receptor α Flash Plate Assay
This assay monitors binding of radiolabeled estrogen to the estrogen receptor. It is performed on a BioMek 2000 (Beckman). Plates are read in a scintillation counter (Packard TopCount), with decreased counts an indication of binding of a compound to the receptor. The assay was run according to the procedure described by Allan, et al., Anal. Biochem. (1999), 275(2), 243-247.
On day one, 100 μL of Estrogen Screening Buffer (ESB, Panvera) containing 5 mM dithiothreitol (DTT, Panvera), 0.5 μg mouse anti-estrogen receptor monoclonal antibody (SRA-1010, Stressgen) and 50 ng purified human estrogen receptor a (Panvera) were added to each well of a 96 well FlashPlate Plus plate crosslinked with goat anti-mouse antibodies (NEN Life Sciences). The plate was sealed and incubated at 4° C. overnight.
On day two, each well was washed three times with 200 μL PBS, pH 7.2, at room temperature. To each well was then added 98 μL radiolabeled estrogen (0.5 nM, which equals 6 nCi for a 120 Ci/mmol batch, Amersham), diluted in ESB and 5 mM dithiothreitol (DTT). To individual wells were then added 2.5 μL test compound diluted in 30% (v/v) dimethyl sulfoxide/50 mM HEPES, pH 7.5. The wells were mixed three times by aspiration, the plate sealed and incubated at room temperature for one hour. The wells were then counted for 1 min in a TopCount scintillation counter (Packard).
as §1

T1 sequence (Q92731 whole entry): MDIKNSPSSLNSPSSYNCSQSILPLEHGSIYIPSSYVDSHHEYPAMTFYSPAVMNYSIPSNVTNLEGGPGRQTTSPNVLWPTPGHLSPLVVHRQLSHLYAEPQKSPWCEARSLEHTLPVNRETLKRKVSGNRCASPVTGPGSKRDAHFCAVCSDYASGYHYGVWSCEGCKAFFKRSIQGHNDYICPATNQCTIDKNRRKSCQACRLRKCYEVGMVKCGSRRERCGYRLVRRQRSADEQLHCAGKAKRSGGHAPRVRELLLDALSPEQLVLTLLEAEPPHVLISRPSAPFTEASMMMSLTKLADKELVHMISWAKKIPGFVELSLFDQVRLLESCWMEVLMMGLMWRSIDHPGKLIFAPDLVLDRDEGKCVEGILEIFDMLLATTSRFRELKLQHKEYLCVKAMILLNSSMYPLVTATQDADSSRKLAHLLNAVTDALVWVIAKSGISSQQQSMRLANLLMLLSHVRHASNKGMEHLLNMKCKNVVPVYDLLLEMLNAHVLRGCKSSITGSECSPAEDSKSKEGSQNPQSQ

Compound	IC50 (hER-β) [nM]	IC50 [1] [nM]
Oc1ccc2c(c1)OC(c1ccc(OCCN3CCCCC3)cc1)C=C2C1CCCC1 (stereo not drawn) [compound 10]	500	180
4-Methyl-2-[4-(2-piperidin-1-yl-ethoxy)-phenyl]-2-H-chromen-7-ol [ID No. 4]	> 10000	2200
OCCC1=CC(c2ccc(OCCN3CCCCC3)cc2)Oc2cc(O)ccc21 (stereo not drawn) [compound 6]	> 10000	> 10000
4-(2-Hydroxy-ethyl)-2-[4-(2-piperidin-1-yl-ethoxy)-phenyl]-2H-chromen-7-ol [ID No. 6]	500	500
Oc1ccc2c(c1)OC(c1ccc(OCCN3CCCCC3)cc1)C1=C2CCCCC1 (stereo not drawn) [compound 9]	690	59
CC1=C(COCC[Si](C)(C)C)[C@H](c2ccc(OCCN3CCCCC3)cc2)Oc2cc(O)ccc21 (single isomer, unassigned) [compound 3]	> 10000	180
